Values quoted from earlier work, collected in article PMC3531425, “Low Resolution Solution Structure of HAMLET and the Importance of Its Alpha-Domains in Tumoricidal Activity” (PLoS ONE, 2012).

Test system: tumor cells
Settings: molecular range where the complex kills tumor cells; ref [10], [17]; cited from earlier work
Text: The structural basis for HAMLET's tumoricidal activity is not fully understood. […] Since native α-lactalbumin lacks these activities, we hypothesized that the partially unfolded and ... || Recent Far-UV CD spectroscopy studies have shown that the secondary structural features in HAMLET are similar to those in α-lactalbumin [10], which include an alpha1 and alpha2 domain, consisting of the amino acid residues K1-Q39 and L81-L123, respectively, as well as the beta domain, formed by the residues A40-F80 (Fig. 3A–B). […] As described above the alpha2 domain forms a part of the globular domain (residues L81 to W104) as well as the C-terminal tail with t ...

SMILES: CCCCCCCC/C=C\CCCCCCCC(=O)O [oleic acid]
- Toxicity of oleic acid alone: not toxic
